These results are taken from US9637487B2, “Purinone compounds as kinase inhibitors” (Pharmacyclics LLC, priority 2013, dated 2017).

Structures are written as SMILES.

The target of the assay is Btk (Homo sapiens (Human), UniProt Q06187). Put plainly: Btk in vitro inhibitory activity (one of Method A TR-FRET, Method B mobility shift, Method C radiometric filter binding). To be noted: determined using one of the methods outlined in Example 36a, 36b and 36c. The format is biochemical. The procedure: Btk kinase activity is determined using a time-resolved fluorescence resonance energy transfer (TR-FRET) methodology. Measurements are performed in a reaction volume of 50 μL using 96-well assay plates. […] The reaction is quenched by the addition of 1.2 equivalents of EDTA (relative to divalent cation) in 25 μL of 1× Lance buffer (Perkin-Elmer). […] The TR-FRET signal is measured on a multimode plate reader with an excitation wavelength (λEx) of 330 nm and detection wavelengths (λEm) of 615 and 665 nm. Activity is determined by the ratio of the fluorescence at 665 nm to that at 615 nm. For each compound, enzyme activity is measured at various concentrations of compound. Negative control reactions are performed in the absence of inhibitor in replicates of six, and two no-enzyme controls are used to determine baseline fluorescence levels Inhibition constants, Ki(app), ware obtained using the program BatchKi (Kuzmic et al. (2000), Anal. Biochem. 286:45-50). IC50s are obtained according to the equation: IC50={Ki(app)/(1+[ATP]/Km^ATP)}+[E]total/2;
Chain of Btk (Q06187 whole entry): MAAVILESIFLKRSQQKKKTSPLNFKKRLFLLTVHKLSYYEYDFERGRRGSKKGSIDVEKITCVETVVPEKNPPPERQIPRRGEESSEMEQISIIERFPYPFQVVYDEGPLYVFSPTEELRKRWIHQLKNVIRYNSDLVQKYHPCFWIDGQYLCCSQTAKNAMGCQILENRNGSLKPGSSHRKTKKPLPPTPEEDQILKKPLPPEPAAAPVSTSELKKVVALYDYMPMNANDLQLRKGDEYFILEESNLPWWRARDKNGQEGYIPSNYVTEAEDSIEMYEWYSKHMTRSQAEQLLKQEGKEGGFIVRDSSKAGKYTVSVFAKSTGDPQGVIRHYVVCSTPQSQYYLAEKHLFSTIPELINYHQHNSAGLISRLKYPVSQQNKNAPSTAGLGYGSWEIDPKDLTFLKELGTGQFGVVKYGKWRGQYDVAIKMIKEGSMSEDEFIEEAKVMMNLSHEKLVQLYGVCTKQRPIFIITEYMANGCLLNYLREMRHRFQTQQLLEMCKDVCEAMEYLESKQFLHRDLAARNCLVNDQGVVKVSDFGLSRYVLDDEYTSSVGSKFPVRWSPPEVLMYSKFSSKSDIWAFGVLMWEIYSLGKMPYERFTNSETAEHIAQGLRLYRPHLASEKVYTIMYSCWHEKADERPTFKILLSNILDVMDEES
Kinase activity is measured in vitro using electrophoretic mobility shift assay. The kinase reactions are assembled in a total volume of 25 μL in 384 well plates. […] The reaction is incubated for one hour and is quenched by the addition of 45 μL of termination buffer (100 mM HEPES, pH7.5, 0.01% Triton X-100, 30 mM EDTA). The terminated reactions are analyzed using 12 channel LabChip® 3000 microfluidic detection instrument (Caliper Life Sciences). […] Change in the relative fluorescence intensity of the substrate and product peaks is the parameter measured, reflecting enzyme activity. In the presence of an inhibitor, the ratio between product and substrate is altered: the signal of the product decreases, while the signal of the substrate increases.
Activity in each sample is determined as the product to sum ratio (PSR):P/(S+P), where P is the peak height of the product peptide and S is the peak height of the substrate peptide. For each compound, enzyme activity is measured at various concentrations (12 concentrations of compound spaced by 3× dilution intervals). Negative control samples (0%-inhibition in the absence of inhibitor) and positive control samples (100%-inhibition, in the presence of 20 mM EDTA) are assembled in replicates of four and are used to calculate %-inhibition values for each inhibitor at each concentration. Percent inhibition (Pinh) is determined using following equation: Pinh=(PSR0%−PSRinh)/(PSR0%−PSR100%)*100, where PSRinh is the product sum ratio in the presence of inhibitor, PSR0% is the average product sum ration in the absence of inhibitor and PSR100% is the average product sum ratio in 100%-inhibition control samples;
The IC50 values of inhibitors are determined by 4 parameter sigmoidal dose-response model fitting of the inhibition curves (Pinh versus inhibitor concentration) using XLfit 4 software.
IC50 values and curve fits were obtained using Prism (GraphPad Software).
The degree of Btk inhibition was determined using one of the methods outlined in Example 36a, 36b and 36c.
`CN(C)C/C=C/C(=O)N(C)c1cccc(-n2c(=O)n(-c3ccc(C(=O)Nc4ccccn4)cc3)c3c(N)ncnc32)c1` [Compound 6, (E)-4-(6-amino-9-(3-(4-(dimethylamino)-N-methylbut-2-enamido)phenyl)-8-oxo-8,9-dihydro-7H-purin-7-yl)-N-(pyridin-2-yl)benzamide]: the 50% inhibitory concentration (IC50) (as a rule, the point on the concentration scale where inhibition reaches its midpoint) was below 100 nM.

With `Cc1nc(NC(=O)c2ccc(-n3c(=O)n(-c4cccc(N(C)C(=O)/C=C/CN(C)C)c4)c4ncnc(N)c43)cc2)sc1C` [Compound 21, (E)-4-(6-amino-9-(3-(4-(dimethylamino)-N-methylbut-2-enamido)phenyl)-8-oxo-8,9-dihydro-7H-purin-7-yl)-N-(4,5-dimethylthiazol-2-yl)benzamide], the IC50 is below 100 nM.

In the case of `CN(C(=O)/C=C/CN1CCOCC1)c1cccc(-n2c(=O)n(-c3ccc(Oc4ccccc4)cc3)c3c(N)ncnc32)c1` [Compound 51, (E)-N-(3-(6-amino-8-oxo-7-(4-phenoxyphenyl)-7H-purin-9(8H)-yl)phenyl)-N-methyl-4-morpholinobut-2-enamide], the 50% inhibitory concentration (IC50) was below 100 nM.

Regarding `CN(C(=O)/C=C/CN(C)C1CC1)c1cccc(-n2c(=O)n(-c3ccc(Oc4ccccc4)cn3)c3c(N)ncnc32)c1` [Compound 58, (E)-N-(3-(6-amino-8-oxo-7-(5-phenoxypyridin-2-yl)-7H-purin-9(8H)-yl)phenyl)-4-(cyclopropyl(methyl)amino)-N-methylbut-2-enamide], the half-inhibitory concentration (IC50) is below 100 nM.

For the compound `Cc1cc(NC(=O)c2ccc(-n3c(=O)n(-c4cccc(N(C)C(=O)/C=C/CN(C)C)c4)c4ncnc(N)c43)cc2)sn1` [Compound 25, (E)-4-(6-amino-9-(3-(4-(dimethylamino)-N-methylbut-2-enamido)phenyl)-8-oxo-8,9-dihydro-7H-purin-7-yl)-N-(3-methylisothiazol-5-yl)benzamide], the IC50 was in the range of 100 to 1000 nM.

Take `CN(C(=O)/C=C/CN1CCCC1)c1cccc(-n2c(=O)n(-c3ccc(Oc4ccccc4)cc3)c3c(N)ncnc32)c1` [Compound 52, (E)-N-(3-(6-amino-8-oxo-7-(4-phenoxyphenyl)-7H-purin-9(8H)-yl)phenyl)-N-methyl-4-(pyrrolidin-1-yl)but-2-enamide]: the IC50 is below 100 nM.

As to `CN(C)C/C=C/C(=O)N(C)c1cccc(-n2c(=O)n(-c3ccc(C(=O)Nc4cncc(F)c4)cc3)c3c(N)ncnc32)c1` [Compound 15, (E)-4-(6-amino-9-(3-(4-(dimethylamino)-N-methylbut-2-enamido)phenyl)-8-oxo-8,9-dihydro-7H-purin-7-yl)-N-(5-fluoropyridin-3-yl)benzamide], the IC50 is 100 to 1000 nM.

Regarding `C=CC(=O)N(C)c1cccc(-n2c(=O)n(-c3ccc(OC4CC4)cc3)c3c(N)ncnc32)c1` [Compound 30, N-(3-(6-amino-7-(4-cyclopropoxyphenyl)-8-oxo-7H-purin-9(8H)-yl)phenyl)-N-methylacrylamide], the IC50 is below 100 nM.

For the compound `CN(C(=O)CC#N)c1cccc(-n2c(=O)n(-c3ccc(Oc4ccccc4)cc3)c3c(N)ncnc32)c1` [Compound 33, N-(3-(6-amino-8-oxo-7-(4-phenoxyphenyl)-7H-purin-9(8H)-yl)phenyl)-2-cyano-N-methylacetamide], the IC50 lay within 100 to 1000 nM.

For `C=CC(=O)N(C)c1cccc(-n2c(=O)n(-c3ccc(C(=O)Nc4ccccn4)cc3)c3c(N)ncnc32)c1` [Compound 29, 4-(6-amino-9-(3-(N-methylacrylamido)phenyl)-8-oxo-8,9-dihydro-7H-purin-7-yl)-N-(pyridin-2-yl)benzamide], the half-maximal inhibitory concentration (IC50) is below 100 nM.

Take `CN(C)C/C=C/C(=O)N(C)c1cccc(-n2c(=O)n(-c3ccc(C(=O)Nc4nc5ccccc5s4)cc3)c3c(N)ncnc32)c1` [Compound 23, (E)-4-(6-amino-9-(3-(4-(dimethylamino)-N-methylbut-2-enamido)phenyl)-8-oxo-8,9-dihydro-7H-purin-7-yl)-N-(benzo[d]thiazol-2-yl)benzamide]: the IC50 was below 100 nM.

For the compound `CN(C)C/C=C/C(=O)N(C)c1cccc(-n2c(=O)n(-c3ccc(C(=O)Nc4cccc(C(F)(F)F)c4)cc3)c3c(N)ncnc32)c1` [Compound 11, (E)-4-(6-amino-9-(3-(4-(dimethylamino)-N-methylbut-2-enamido)phenyl)-8-oxo-8,9-dihydro-7H-purin-7-yl)-N-(3-(trifluoromethyl)phenyl)benzamide], the IC50 was below 100 nM.

In the case of `Cc1cnc(NC(=O)c2ccc(-n3c(=O)n(-c4cccc(N(C)C(=O)/C=C/CN(C)C)c4)c4ncnc(N)c43)cc2)s1` [Compound 19, (E)-4-(6-amino-9-(3-(4-(dimethylamino)-N-methylbut-2-enamido)phenyl)-8-oxo-8,9-dihydro-7H-purin-7-yl)-N-(5-methylthiazol-2-yl)benzamide], the IC50 was below 100 nM.
